In ChEMBL document CHEMBL5724914, “Linking interpersonal differences in gut microbiota composition and drug biotransformation activity” (2024):

Assays:
[1] = (§1) The drug is tested on Z-003 corresponding to pig gut metagenome with ENA study accession number: PRJEB37062 and ENA sample accession number: ERS12561803 for biotransformation under anaerobic condition. The drug concentrations were measured over 9 timepoints collected between 0 and 24 hours of incubation by liquid-chromatography-coupled mass spectrometry (LC–MS); conditions: 2 µM
[2] = as §1, with “Z-024” for “Z-003”, “ERS12561823” for “ERS12561803”; conditions: 2 µM
[3] = human gut metagenome, 24 h, 2 µM
[4] = human gut metagenome, 24 h, 2 µM; remark: listed apart in the source
[5] = human gut metagenome, 24 h, 2 µM; remark: listed apart in the source
[6] = as §1, with “WLS-073” for “Z-003”, “human” for “pig”, “ERS12561749” for “ERS12561803”; conditions: 2 µM
[7] = human gut metagenome, 24 h, 2 µM; remark: listed apart in the source
[8] = as §1, with “WLS-090” for “Z-003”, “human” for “pig”, “ERS12561753” for “ERS12561803”; conditions: 2 µM
[9] = human gut metagenome, 24 h, 2 µM; remark: listed apart in the source
[10] = human gut metagenome, 24 h, 2 µM; remark: listed apart in the source
[11] = human gut metagenome, 24 h, 2 µM; remark: listed apart in the source
[12] = human gut metagenome, 24 h, 2 µM; remark: listed apart in the source
[13] = human gut metagenome, 24 h, 2 µM; remark: listed apart in the source
[14] = as §1, with “Z-013” for “Z-003”, “rabbit” for “pig”, “ERS12561813” for “ERS12561803”; conditions: 2 µM
[15] = as §1, with “Z-016” for “Z-003”, “mouse” for “pig”, “ERS12561815” for “ERS12561803”; conditions: 2 µM
[16] = as §1, with “Z-009” for “Z-003”, “ERS12561809” for “ERS12561803”; conditions: 2 µM
[17] = as §1, with “Z-026” for “Z-003”, “to” for “to pig gut”, “ERS12561825” for “ERS12561803”; conditions: 2 µM
[18] = as §1, with “Z-023” for “Z-003”, “to” for “to pig gut”, “ERS12561822” for “ERS12561803”; conditions: 2 µM
[19] = as §1, with “Z-008” for “Z-003”, “to” for “to pig gut”, “ERS12561808” for “ERS12561803”; conditions: 2 µM
[20] = as §1, with “Z-021” for “Z-003”, “to” for “to pig gut”, “ERS12561820” for “ERS12561803”; conditions: 2 µM
Also: call rule not given here.

| Bacterial Biotransformation [1] | Bacterial Biotransformation [2] | Bacterial Biotransformation [3] | Bacterial Biotransformation [4] | Bacterial Biotransformation [5] | Bacterial Biotransformation [6] | Bacterial Biotransformation [7] | Bacterial Biotransformation [8] | Bacterial Biotransformation [9] | Bacterial Biotransformation [10] | Bacterial Biotransformation [11] | Bacterial Biotransformation [12] | Bacterial Biotransformation [13] | Bacterial Biotransformation [14] | Bacterial Biotransformation [15] | Bacterial Biotransformation [16] | Bacterial Biotransformation [17] | Bacterial Biotransformation [18] | Bacterial Biotransformation [19] | Bacterial Biotransformation [20] | SMILES |
| --- | --- | --- | --- | --- | --- | --- | --- | --- | --- | --- | --- | --- | --- | --- | --- | --- | --- | --- | --- | --- |
| – | – | Compound metabolized | Compound NOT metabolized | Compound NOT metabolized | Compound NOT metabolized | Compound NOT metabolized | Compound metabolized | Compound NOT metabolized | Compound NOT metabolized | Compound metabolized | Compound NOT metabolized | Compound NOT metabolized | – | – | – | – | – | – | – | CN(C)CCc1c[nH]c2ccc(CS(=O)(=O)N3CCCC3)cc12 [ALMOTRIPTAN] |
| – | – | Compound metabolized | Compound metabolized | Compound metabolized | Compound metabolized | Compound metabolized | Compound metabolized | Compound metabolized | Compound metabolized | Compound metabolized | Compound metabolized | Compound metabolized | – | – | – | – | – | – | – | Cc1nc(Nc2ncc(C(=O)Nc3c(C)cccc3Cl)s2)cc(N2CCN(CCO)CC2)n1 [DASATINIB ANHYDROUS] |
| – | – | Compound NOT metabolized | Compound NOT metabolized | Compound NOT metabolized | Compound metabolized | Compound NOT metabolized | Compound NOT metabolized | Compound NOT metabolized | – | Compound NOT metabolized | Compound NOT metabolized | Compound NOT metabolized | – | – | – | – | – | – | – | CC#CCn1c(N2CCC[C@@H](N)C2)nc2c1c(=O)n(Cc1nc(C)c3ccccc3n1)c(=O)n2C [LINAGLIPTIN] |
| – | – | Compound metabolized | Compound metabolized | Compound metabolized | Compound metabolized | Compound metabolized | Compound metabolized | Compound NOT metabolized | Compound metabolized | Compound metabolized | Compound metabolized | Compound metabolized | – | – | – | – | – | – | – | CCOC(=O)C1=C(C)NC(C)=C(C(=O)OC)C1c1cccc([N+](=O)[O-])c1 (stereo not drawn) [NITRENDIPINE] |
| – | – | Compound metabolized | Compound NOT metabolized | Compound NOT metabolized | Compound NOT metabolized | Compound metabolized | Compound metabolized | Compound metabolized | Compound metabolized | Compound metabolized | Compound NOT metabolized | Compound NOT metabolized | – | – | – | – | – | – | – | N#Cc1ccc2c(c1)N(CCCN1CCC(O)CC1)c1ccccc1S2 [PERICIAZINE] |
| Compound NOT metabolized | Compound metabolized | Compound metabolized | Compound metabolized | Compound NOT metabolized | Compound NOT metabolized | Compound metabolized | Compound NOT metabolized | Compound NOT metabolized | – | Compound metabolized | Compound NOT metabolized | Compound metabolized | Compound metabolized | – | – | Compound metabolized | – | Compound NOT metabolized | – | CNNCc1ccc(C(=O)NC(C)C)cc1 [PROCARBAZINE] |

The next lines start with the compound.

| SMILES | Bacterial Biotransformation [1] | Bacterial Biotransformation [2] | Bacterial Biotransformation [3] | Bacterial Biotransformation [4] | Bacterial Biotransformation [5] | Bacterial Biotransformation [6] | Bacterial Biotransformation [7] | Bacterial Biotransformation [8] | Bacterial Biotransformation [9] | Bacterial Biotransformation [10] | Bacterial Biotransformation [11] | Bacterial Biotransformation [12] | Bacterial Biotransformation [13] | Bacterial Biotransformation [14] | Bacterial Biotransformation [15] | Bacterial Biotransformation [16] | Bacterial Biotransformation [17] | Bacterial Biotransformation [18] | Bacterial Biotransformation [19] | Bacterial Biotransformation [20] |
| --- | --- | --- | --- | --- | --- | --- | --- | --- | --- | --- | --- | --- | --- | --- | --- | --- | --- | --- | --- | --- |
| N[C@@H](Cc1ccc(N(CCCl)CCCl)cc1)C(=O)O | Compound metabolized | Compound metabolized | Compound metabolized | Compound NOT metabolized | Compound NOT metabolized | Compound metabolized | Compound NOT metabolized | Compound metabolized | – | – | – | – | – | – | – | – | – | – | – | – |
| CCCCC(=O)O[C@]1(C(=O)CO)[C@@H](C)C[C@H]2[C@@H]3CCC4=CC(=O)C=C[C@]4(C)[C@@]3(F)[C@@H](O)C[C@@]21C [BETAMETHASONE VALERATE] | – | – | Compound metabolized | Compound NOT metabolized | Compound NOT metabolized | Compound NOT metabolized | Compound metabolized | Compound metabolized | Compound metabolized | Compound metabolized | Compound metabolized | Compound metabolized | Compound NOT metabolized | – | – | – | – | – | – | – |
| COCCCC/C(=N\OCCN)c1ccc(C(F)(F)F)cc1.O=C(O)/C=C\C(=O)O [FLUVOXAMINE MALEATE] | – | – | Compound NOT metabolized | Compound metabolized | Compound NOT metabolized | Compound NOT metabolized | Compound NOT metabolized | Compound metabolized | Compound NOT metabolized | Compound metabolized | Compound NOT metabolized | Compound NOT metabolized | Compound NOT metabolized | – | – | – | – | – | – | – |
| CN1CCN(C2=Nc3ccccc3Oc3ccc(Cl)cc32)CC1.O=C(O)CCC(=O)O [LOXAPINE SUCCINATE] | – | – | Compound NOT metabolized | Compound NOT metabolized | Compound NOT metabolized | Compound NOT metabolized | Compound NOT metabolized | Compound NOT metabolized | Compound NOT metabolized | Compound NOT metabolized | Compound NOT metabolized | Compound NOT metabolized | Compound NOT metabolized | – | – | – | – | – | – | – |
| O=C1N=C([O-])NC1(c1ccccc1)c1ccccc1.[Na+] [PHENYTOIN SODIUM] | Compound NOT metabolized | Compound NOT metabolized | Compound metabolized | Compound metabolized | Compound NOT metabolized | Compound NOT metabolized | Compound NOT metabolized | Compound metabolized | Compound metabolized | Compound metabolized | Compound metabolized | Compound NOT metabolized | Compound NOT metabolized | Compound NOT metabolized | Compound NOT metabolized | Compound NOT metabolized | Compound NOT metabolized | Compound NOT metabolized | Compound NOT metabolized | – |
| O=C([O-])C[C@H](O)C[C@H](O)/C=C/c1c(C2CC2)nc2ccccc2c1-c1ccc(F)cc1.O=C([O-])C[C@H](O)C[C@H](O)/C=C/c1c(C2CC2)nc2ccccc2c1-c1ccc(F)cc1.[Ca+2] [PITAVASTATIN CALCIUM] | – | – | Compound metabolized | Compound NOT metabolized | Compound NOT metabolized | Compound metabolized | Compound NOT metabolized | Compound metabolized | Compound metabolized | Compound metabolized | Compound metabolized | Compound metabolized | Compound metabolized | – | – | – | – | – | – | – |
| CN(C/C=C/C#CC(C)(C)C)Cc1cccc2ccccc12 [TERBINAFINE] | Compound NOT metabolized | Compound NOT metabolized | Compound NOT metabolized | Compound NOT metabolized | Compound NOT metabolized | – | Compound metabolized | Compound NOT metabolized | Compound NOT metabolized | Compound NOT metabolized | Compound NOT metabolized | Compound NOT metabolized | Compound NOT metabolized | Compound NOT metabolized | Compound NOT metabolized | Compound metabolized | Compound NOT metabolized | – | Compound NOT metabolized | Compound NOT metabolized |
